The source of these data is publication PMC3570965 (Science translational medicine, 2012).

Like-named read-outs stand apart in the source and are kept apart here.

As a reminder, the half-life is the time needed for the level to fall by half in the phase considered.

For data set [1] the following is noted: cited from earlier work.
Data set [2] in a line: Pharmacokinetic analyses in NOD/SCID mice. It counts as in vivo.
For data set [3], the system named is TG144 tumorgraft-bearing mice. Description: Serum calcium. As to conditions: TG144, end of trial. Format: in vivo, NOD/SCID mice.
Data set [4] relates to ccRCC tumorgraft lines. The experiment in a line: Drug trials in subcutaneous ccRCC tumorgraft lines. Format: in vivo, NOD/SCID mice. As to conditions: 4 ccRCC tumorgraft lines; dovitinib 30 mg/kg by gavage.
Data set [5] concerns papillary RCC tumorgraft line (TG121). Description: Drug trial in papillary RCC tumorgraft line TG121. It counts as in vivo, NOD/SCID mice. The note with it: dovitinib 30 mg/kg by gavage.
Data set [6] relates to ccRCC. As to conditions: patients with ccRCC, randomized phase II trial; cited from earlier work.
The subject of data set [7] is NSCLC cell line-derived xenograft. The experiment in a line: NSCLC. Format: in vivo, mice. The note with it: same erlotinib regimen (12.5 mg/kg by gavage every 12 h).

On to `CO[C@H]1C[C@@H]2CC[C@@H](C)[C@@](O)(O2)C(=O)C(=O)N2CCCC[C@H]2C(=O)O[C@H]([C@H](C)C[C@@H]2CC[C@@H](OCCO)[C@H](OC)C2)CC(=O)[C@H](C)/C=C(\C)[C@@H](O)[C@@H](OC)C(=O)[C@H](C)C[C@H](C)/C=C/C=C/C=C/1C` [Everolimus], for which the Cmin in data set [1] (human, 10 mg PO qd, analyte Everolimus, mean ± SD, ref Awada et al., 2008) is 13.2 ± 7.2 ng/mL.

Regarding `CCNCCNC(=O)c1c(C)[nH]c(/C=C2\C(=O)Nc3ccc(F)cc32)c1C` [desethyl sunitinib], the “metabolite as share of total circulating drug” value in data set [1] (humans, day 1, after sunitinib, ref Table 6) is listed as 13%; in data set [2] (NOD/SCID mice, day 1, after sunitinib) it was 38%.

Regarding `CN1CCN(c2ccc3nc(-c4c(N)c5c(F)cccc5[nH]c4=O)[nH]c3c2)CC1` [dovitinib], the “effect on paraneoplastic hypercalcemia (serum calcium)” value in data set [3] is “inhibited the development of paraneoplastic hypercalcemia”. In addition, the “Terminal t1/2” value in data set [1] (human, 500 mg PO qd, PK data at (D15), analyte Dovitinib, ref Kim, et al 2011) was 21 h. The “effect on ccRCC tumorgraft growth” value in data set [4] is on record as “profoundly suppressed”. Besides, in data set [2] (dovitinib 30 mg/kg daily by gavage, mice), the “peak and overall exposures compared with humans” value was “within the range reported in humans”. Further, the “activity in papillary RCC tumorgraft line” value in data set [5] is listed as “very active”.

Consider `C#Cc1cccc(Nc2ncnc3cc(OCCOC)c(OCCOC)cc23)c1` [erlotinib], for which the half-life in data set [1] (humans) is on record as 24 h. Besides, the “outcomes in combination with bevacizumab vs bevacizumab alone” value in data set [6] is “failed to show improved outcomes”. In addition, in data set [2] (erlotinib 12.5 mg/kg by gavage every 12 h, mice), the “peak and overall exposures compared with humans” value is listed as “higher”. Also, the “effect on NSCLC cell line-derived xenograft growth” value in data set [7] is given as “profound effect”.

In the case of `CO[C@H]1C[C@@H]2CC[C@@H](C)[C@@](O)(O2)C(=O)C(=O)N2CCCC[C@H]2C(=O)O[C@H]([C@H](C)C[C@@H]2CC[C@@H](O)[C@H](OC)C2)CC(=O)[C@H](C)/C=C(\C)[C@@H](O)[C@@H](OC)C(=O)[C@H](C)C[C@H](C)/C=C/C=C/C=C/1C` [sirolimus], the “share of circulating drug after temsirolimus administration” value in data set [1] (humans, after temsirolimus administration) was 75%. In data set [1] (humans), the “therapeutic range (trough levels) in humans” value is 5 to 15 ng/mL. In addition, in data set [2] (sirolimus 0.5 mg/kg intraperitoneally every 48 h, NOD/SCID mice vs humans), the “peak and overall exposures, fold higher than in humans” value is reported as 2-3 fold.

As to `CCN(CC)CCNC(=O)c1c(C)[nH]c(/C=C2\C(=O)Nc3ccc(F)cc32)c1C` [sunitinib], the “peak exposures compared with humans” value in data set [2] (sunitinib 10 mg/kg by gavage every 12 h, mice) is “slightly higher than in humans”. Moreover, in data set [2] (sunitinib, mice vs humans), the “half-life compared with humans” value is “much shorter in mice”.
